Assay results: patent publication US4748161A, “Triterpenyl esters of organic acids and hypolipidemic agents composed of them” (Amano Pharmaceutical Co., Ltd., priority 1984, dated 1988)

Tested on: serum lipids and serum lipid hydroperoxide
Assay: Pharmacological test method A for anti-hyperlipidemic activity (serum lipids, 2 weeks feeding)
Assay type: in vivo, male Wistar strain rats
Conditions: for AI [(TC - HDL-C)/(HDL-C)] / HDL-C in serum / LPO in serum / PL in serum / TC in serum / TG in serum: 1% in hyperlipidemic diet, 2 weeks; for AI % of diff. / AI Diff. / HDL-C % of diff. / HDL-C Diff. / LPO % of diff. / LPO Diff. / PL % of diff. / PL Diff. / TC % of diff. / TC Diff. / TG % of diff. / TG Diff.: versus control group
Procedure: Male Wistar strain rats (100±lg, each 10 rats were formed into a group) were used as test animals. Diet for the control group was prepared by thorough mixing of 20% casein, 62.5% glucose, 10% hydrogenated coconut oil, 2% agar powder, 4% vitamin-containing salt mixture, 1% cholesterol, and 0.5% cholic acid (this composition is described by Fukushima et al, in "Yakugaku Zassi", 89, No. 6, pp. 857-862 (1962)). Diet for the test groups was prepared by good mixing of 1% each of cycloartenol, 24-methylenecycloartanol, and cyclobranol with the control group's diet. Each rat was kept in a cage at a constant temperature of 23±1° C. and a constant R.H. of 55±5% for 2 weeks, during which 10 g/day of the prescribed was given. Finally the rats were fasted from food except water for 16 hours (from 4 p.m. of the 14th test day to 8 a.m. of the 15th test day), and under anesthesia with pentbarbital sodium (tradename: Nembutal), blood was taken from each rat through the descending abdominal arota. Then, TC, HDL-C, TG, PL, and LPO in the serum were measured in the manner that will be described below.
A TC kit-K (supplied by Nippon Shoji Kaisha, Ltd.) was used. The principle of this determination is as follows: The ester of cholesterol in the serum is hydrolyzed with cholesterol-ester hydrolase into free cholesterol and fatty acids. All the free cholesterol is oxidized with cholesterol oxydase to form Δ^4 -cholestenone and hydrogen peroxide. Phenol and 4-aminoantipyrin are oxidatively condensed together by the formed hydrogen peroxide and peroxydase. The produced red quinone coloring matter is measured by colorimetry for absorbance at 500 nm using a spectrophotometer, thereby determining the TC:
The color-developing liquid (3.0 ml) is well mixed with the sample serum (0.02 ml). The mixture once heated at 37° C. for 15 minutes, is measured for absorbance at 500 nm with a spectrophotometer. The found absorbance is denoted by EA. On the other hand, the color-developing liquid (3.0 ml) is well mixed with the standard solution. The mixture is treated and measured for absorbance at 500 nm in the same manner as the above. This found absorbance is denoted by ES. Both EA and ES are determined with reference to the value of the blank test conducted using the color-developing liquid (3.0 ml) alone. [formula]
An HDL-C kit-N (supplied by Nippon Shoji Kaisha, Ltd.) was used. […] (VLDL) and lo density lipoprotein (LDL) in the serum is precipitated by the action of heparin. The precipitate is separated by centrifugation. High density lipoprotein (HDL) is dissolved in the separated supernatant. Esters of cholesterol in this fraction is hydrolyzed with cholesterol-ester hydrolase into free cholesterol and fatty acids. All the free cholesterol is oxidized with cholesterol oxydase to form Δ^4 -cholestenone and hydrogen peroxide. Phenol and 4-aminoantipyrine are oxidatively condensed together by the formed hydrogen peroxide and peroxydase. The produced red quinone coloring matter is measured by colorimetry for absorbance at 500 nm using a spectrophotometer, thereby determining the HDL-C.
A PL kit-K (supplied by Nippon Shoji Kaisha, Ltd.) was used for the determination. Lecithin, sphingomyelin, and lysolecithin are decomposed by phospholipase D into choline and phosphatidic acid, N-acylsphingosyl phosphate, or lysophosphatidic acid, respectively. The resulting choline is quantitatively decomposed by choline oxydase into hydrogen peroxide and betaine. With this hydrogen peroxide, and aid of peroxydase, phenol and 4-aminoantipyrin are condensed into red quinone pigment, then the absorbance at 500 nm of which is measured with a spectrophotometer, thereby determining the PL.
Serum TG level was determined by means of a triglyceride test kit (supplied by Wako Pure Chemical Industries, Ltd.) in which acetylacetone is used for a reagent, in the following manner: Serum proteins are precipitated, when isopropyl alcohol and the sample serum are mixed. […]

CC(C)=CCCC(C)C1CCC2(C)C3CCC4C(C)(C)C(OC(=O)c5ccccc5O)CCC45CC35CCC12C (stereo not drawn) [Example 8, cycloartenyl-o-hydroxybenzoate]
AI [(TC - HDL-C)/(HDL-C)]: 0.759
HDL-C in serum: 101.1 mg/dL
LPO in serum: 2.01 nmol/mL
PL in serum: 148.8 mg/dL
TC in serum: 177.8 mg/dL
TG in serum: 41.3 mg/dL
AI % of diff.: -54.9%
AI Diff.: -0.925
HDL-C % of diff.: +25.0%
HDL-C Diff.: +20.2 mg/dl
LPO % of diff.: -13.0%
LPO Diff.: -0.30 nmol/mL
PL % of diff.: -17.2%
PL Diff.: -30.9 mg/dL
TC % of diff.: -18.1%
TC Diff.: -39.3 mg/dL
TG % of diff.: -3.5%
TG Diff.: -1.5 mg/dL

CC(C)=CCCC(C)C1CCC2(C)C3CCC4C(C)(C)C(OC(=O)c5ccc(O)cc5)CCC45CC35CCC12C (stereo not drawn) [Example 10, cycloartenyl-p-hydroxybenzoate]
AI [(TC - HDL-C)/(HDL-C)]: 1.543
HDL-C in serum: 57.6 mg/dL
LPO in serum: 1.73 nmol/mL
PL in serum: 123.3 mg/dL
TC in serum: 146.5 mg/dL
TG in serum: 27.3 mg/dL
AI % of diff.: -12.7%
AI Diff.: -0.224
HDL-C % of diff.: -4.3%
HDL-C Diff.: -2.6 mg/dL
LPO % of diff.: -31.6%
LPO Diff.: -0.80 nmol/mL
PL % of diff.: -9.8%
PL Diff.: -13.4 mg/dL
TC % of diff.: -12.1%
TC Diff.: -20.1 mg/dL
TG % of diff.: +0.4%
TG Diff.: +0.1 mg/dl

CC(C)=CCCC(C)C1CCC2(C)C3CCC4C(C)(C)C(OC(=O)c5cccc(O)c5)CCC45CC35CCC12C (stereo not drawn) [Example 12, cycloartenyl-m-hydroxybenzoate]
AI [(TC - HDL-C)/(HDL-C)]: 1.571
HDL-C in serum: 58.5 mg/dL
LPO in serum: 2.03 nmol/mL
PL in serum: 140.4 mg/dL
TC in serum: 150.4 mg/dL
TG in serum: 24.0 mg/dL
AI % of diff.: -14.9%
AI Diff.: -0.276
HDL-C % of diff.: -0.3%
HDL-C Diff.: -0.2 mg/dL
LPO % of diff.: -13.2%
LPO Diff.: -0.31 nmol/mL
PL % of diff.: -5.4%
PL Diff.: -8.0 mg/dL
TC % of diff.: -10.0%
TC Diff.: -16.7 mg/dL
TG % of diff.: -3.2%
TG Diff.: -0.8 mg/dL

COc1ccccc1C(=O)OC1CCC23CC24CCC2(C)C(C(C)CCC=C(C)C)CCC2(C)C4CCC3C1(C)C (stereo not drawn) [Example 13, cycloartenyl-o-methoxybenzoate]
AI [(TC - HDL-C)/(HDL-C)]: 1.388
HDL-C in serum: 60.5 mg/dL
LPO in serum: 1.94 nmol/mL
PL in serum: 122.8 mg/dL
TC in serum: 144.5 mg/dL
TG in serum: 26.2 mg/dL
AI % of diff.: -21.4%
AI Diff.: -0.379
HDL-C % of diff.: +0.5%
HDL-C Diff.: +0.3 mg/dl
LPO % of diff.: -23.3%
LPO Diff.: -0.59 nmol/mL
PL % of diff.: -10.2%
PL Diff.: -13.9 mg/dL
TC % of diff.: -13.3%
TC Diff.: -22.1 mg/dL
TG % of diff.: -3.7%
TG Diff.: -1.0 mg/dL

COc1ccc(C(=O)OC2CCC34CC35CCC3(C)C(C(C)CCC=C(C)C)CCC3(C)C5CCC4C2(C)C)cc1 (stereo not drawn) [Example 14, cycloartenyl-p-methoxybenzoate]
AI [(TC - HDL-C)/(HDL-C)]: 1.275
HDL-C in serum: 64.1 mg/dL
LPO in serum: 1.81 nmol/mL
PL in serum: 120.9 mg/dL
TC in serum: 145.8 mg/dL
TG in serum: 25.4 mg/dL
AI % of diff.: -27.8%
AI Diff.: -0.492
HDL-C % of diff.: +6.5%
HDL-C Diff.: +3.9 mg/dl
LPO % of diff.: -28.5%
LPO Diff.: -0.72 nmol/mL
PL % of diff.: -11.6%
PL Diff.: -15.8 mg/dL
TC % of diff.: -12.5%
TC Diff.: -20.8 mg/dL
TG % of diff.: -6.6%
TG Diff.: -1.8 mg/dL

CC(C)=CCCC(C)C1CCC2(C)C3CCC4C(C)(C)C(OC(=O)c5ccccc5[N+](=O)[O-])CCC45CC35CCC12C (stereo not drawn) [Example 16, cycloartenyl-o-nitrobenzoate]
AI [(TC - HDL-C)/(HDL-C)]: 1.529
HDL-C in serum: 59.4 mg/dL
LPO in serum: 2.04 nmol/mL
PL in serum: 140.1 mg/dL
TC in serum: 150.2 mg/dL
TG in serum: 22.0 mg/dL
AI % of diff.: -17.2%
AI Diff.: -0.318
HDL-C % of diff.: +1.2%
HDL-C Diff.: +0.7 mg/dl
LPO % of diff.: -12.8%
LPO Diff.: -0.30 nmol/mL
PL % of diff.: -5.6%
PL Diff.: -8.3 mg/dL
TC % of diff.: -10.1%
TC Diff.: -16.9 mg/dL
TG % of diff.: -11.3%
TG Diff.: -2.8 mg/dL

CC(C)=CCCC(C)C1CCC2(C)C3CCC4C(C)(C)C(OC(=O)c5ccc(N)cc5)CCC45CC35CCC12C (stereo not drawn) [Example 19, cycloartenyl-p-aminobenzoate]
AI [(TC - HDL-C)/(HDL-C)]: 0.699
HDL-C in serum: 91.9 mg/dL
LPO in serum: 1.63 nmol/mL
PL in serum: 153.6 mg/dL
TC in serum: 156.1 mg/dL
TG in serum: 31.6 mg/dL
AI % of diff.: -42.8%
AI Diff.: -0.523
HDL-C % of diff.: +6.2%
HDL-C Diff.: +5.4 mg/dl
LPO % of diff.: -27.2%
LPO Diff.: -0.61 nmol/mL
PL % of diff.: -11.0%
PL Diff.: -19.0 mg/dL
TC % of diff.: -18.8%
TC Diff.: -36.1 mg/dL
TG % of diff.: -12.9%
TG Diff.: -4.7 mg/dL

CC(=O)Nc1ccc(C(=O)OC2CCC34CC35CCC3(C)C(C(C)CCC=C(C)C)CCC3(C)C5CCC4C2(C)C)cc1 (stereo not drawn) [Example 20, cycloartenyl-p-acetamidobenzoate]
AI [(TC - HDL-C)/(HDL-C)]: 0.867
HDL-C in serum: 90.4 mg/dL
LPO in serum: 2.02 nmol/mL
PL in serum: 143.3 mg/dL
TC in serum: 168.8 mg/dL
TG in serum: 35.2 mg/dL
AI % of diff.: -29.1%
AI Diff.: -0.355
HDL-C % of diff.: +4.5%
HDL-C Diff.: +3.9 mg/dl
LPO % of diff.: -9.7%
LPO Diff.: -0.22 nmol/mL
PL % of diff.: -17.0%
PL Diff.: -29.3 mg/dL
TC % of diff.: -12.2%
TC Diff.: -23.4 mg/dL
TG % of diff.: -3.0%
TG Diff.: -1.1 mg/dL

CC(C)=CCCC(C)C1CCC2(C)C3CCC4C(C)(C)C(OC(=O)c5cccc(N)c5)CCC45CC35CCC12C (stereo not drawn) [Example 23, cycloartenyl-m-aminobenzoate]
AI [(TC - HDL-C)/(HDL-C)]: 1.506
HDL-C in serum: 58.9 mg/dL
LPO in serum: 2.06 nmol/mL
PL in serum: 133.1 mg/dL
TC in serum: 147.6 mg/dL
TG in serum: 20.2 mg/dL
AI % of diff.: -18.5%
AI Diff.: -0.341
HDL-C % of diff.: +0.3%
HDL-C Diff.: +0.2 mg/dl
LPO % of diff.: -12.0%
LPO Diff.: -0.28 nmol/mL
PL % of diff.: -10.3%
PL Diff.: -15.3 mg/dL
TC % of diff.: -11.7%
TC Diff.: -19.5 mg/dL
TG % of diff.: -18.5%
TG Diff.: -4.6 mg/dL
